According to US7138543B2, “Thiolalkyl benzoic acid derivatives” (Guilford Pharmaceuticals Inc., priority 2001, dated 2006):

Key:
[1] = system: STZ-diabetic rats; assay: Neuropathic pain in STZ model (Hargreaves thermal nociception); type: in vivo, Sprague-Dawley rats; conditions: 10 mg/kg i.p. daily, started 45 days post-STZ
Method: In vivo Assay of NAALADase Inhibitors on Neuropathic Pain in STZ Model
Male Sprague-Dawley rats (200–225 g) were rendered diabetic by intravenous administration of streptozotocin (“STZ”, 70 mg/kg in phosphate buffered saline). Diabetic animals were divided into five groups: one group receiving Compound A (10 mg/kg or 1 mg/kg), Compound D (10 mg/kg or 1 mg/kg) or vehicle. Another group of animals (non-STZ treated) served as non-diabetic controls. Drug/vehicle treatment was started in diabetic animals 45 days post-STZ administration. STZ-induced diabetic rats were tested for sensitivity to a heat source as soon as blood glucose levels rose to 320 mg/dl or above (30 days post STZ). The rats were then acclimated to a Hargreaves apparatus and thermal nociception was monitored using an infrared heat source directed into the dorsal surface of the hindpaw, and the time taken for the animal to remove its paw noted to the nearest 0.1 seconds (see Hargreaves et al., J. Biol. Chem. (1988) 263(36):19392–7 for a description of the experimental method). The intensity of the beam source was adjusted such that the mean latency for control animals (non-STZ treated) was approximately 10 seconds. Each animal was tested 8 times and the mean difference score (between mean non-diabetic control latency and mean diabetic latency) are graphically presented in FIGS. 7A and 7B.

[2] = system: BB/W diabetic rats; assay: Progression of neuropathic pain in BB/W model (withdrawal latency); type: in vivo; conditions: 10 mg/kg i.p. daily; vs diabetic vehicle-treated rats, from 4 weeks through six months of treatment, FIG. 11
Text: In vivo Assay of NAALADase Inhibitors on Progression of Neuropathic Pain in BB/W Models
(§1) Male BB/W rats (BRI, Mass) spontaneously develop a cell mediated autoimmune destruction of pancreatic B cells, resulting in onset of insulin-dependent (Type I) diabetes (Awata, Guberski, Endocrinology (1995) 136(12):5731–5). […] This renders them valuable for experimental trials of new compounds for future treatments of this major disorder. In the present study, Compound A and Compound D were examined for their ability to alter the progression of diabetic neuropathy. The rats received daily injection of Compound A or Compound D (10 mg/kg i.p.) or vehicle, starting at the onset of diabetes (hyperglycemia) and up to 6 months thereafter. Another group of non-diabetic rats also receiving vehicle were tested. All animals were continuously monitored for body weight, urine volume, blood sugar and glycated haemoglobin. In the first month of the study, all animals were tested for thermal nociception in a Hargreaves apparatus, weekly. After the first month this was done biweekly and then monthly. The testing consists of directing an infrared heat source onto the dorsal surface of the rat hindpaw and noting the time taken for the animal to remove its paw (see Hargreaves et al., J. Biol. Chem. (1988) 263(36):19392–7 for a description of the experimental method). […]

[3] = system: BB/W diabetic rats; assay: Nerve conduction velocity in BB/W model; type: in vivo; conditions: 10 mg/kg daily; vs diabetic vehicle controls, from 8 weeks to six months, FIG. 12
Text: as §1, with “monthly.” for “monthly. The testing consists of directing an infrared heat source onto the dorsal surface of the rat hindpaw and noting the time taken for the animal to remove its paw (see Hargreaves et al., J. Biol. Chem. (1988) 263(36):19392–7 for a description of the experimental method).”
Nerve conduction velocity was also measured every two weeks through the first eight weeks of treatment and every month thereafter through to the six months of treatment (see De Koning et al., Peptides, Vol. 8, No. 3, pp. 415–22 (1987) for a description of the experimental method). […]

[4] = system: STZ-diabetic rats; assay: Diabetic neuropathy in STZ model (motor and sensory nerve conduction velocity); type: in vivo
Method: In vivo Assay of NAALADase Inhibitors on Diabetic Neuropathy in STZ Model
Motor and sensory nerve conduction velocity was also measured in STZ-diabetic animals after 4, 8 and 12 weeks of treatment (see De Koning et al., supra, for a description of the experimental method). Briefly, stimulating needle electrodes were inserted close to the sciatic and tibial nerves with recording electrodes being placed subcutaneously over the distal foot muscles, in anesthetized rats.

[5] = system: rats with unilateral elevation of intraocular pressure; assay: Experimental rat glaucoma (IOP elevation, optic nerve fiber counting); type: in vivo; conditions: 8 week group
Method: Protective Effect of NAALADase Inhibitors in Experimental Rat Glaucoma
All experiments complied with the Association for Research in Vision and Ophthalmology Statement for the Use of Animals in Ophthalmic and Vision Research. 82 male Brown Norway rats (Rattus norvegicus), each weighing approximately 250 gm, were treated using procedures approved by the Animal Care Committee of the Johns Hopkins University School of Medicine. The rats were housed with a 12 hour light/12 hour dark cycle and fed ad libitum.
EXPERIMENTAL GLAUCOMA: Unilateral elevation of intraocular pressure (“IOP”) was produced in 56 rats by microinjection of hypertonic saline into episcleral veins, following procedures described in Morrison, J. et al., IOVS (March 1998) 39:526–531. Beginning on the day of IOP elevation, the rats were treated daily with intraperitoneal injections of either a vehicle (23 rats with 50 mM HEPES-buffered saline) or a NAALADase inhibitor (11 rats with 10 mg/kg of Compound A and 22 rats with 10 mg/kg of Compound B). 11 saline treated rats, 11 Compound A treated rats and 11 Compound B treated rats were sacrificed at 8 weeks, and the remaining rats at 12 weeks, after initial IOP elevation.
OPTIC NERVE COUNTING: The rats were sacrificed by exsanguination under deep pentobarbital anesthesia. They were perfused through the heart with 2% paraformaldehyde/2% glutaraldehyde in 0.1 M phosphate buffer, pH 7.2, and the eyes with attached optic nerves were removed. A cross-section of the optic nerve from both experimental (glaucoma or transection) and control eyes was removed 1.5 mm posterior to the globe, 1 mm in thickness, and post-fixed in 2% osmium tetroxide in buffer. These were processed into epoxy resin, sectioned at 1 micron and stained with toluidine blue.
The area of the optic nerve cross-section was measured by outlining its outer border at 10× magnification on an image analysis system (Universal Imaging Corp., Westchester, Pa.) with Synsys digital camera and Metamorph software. Three area measurements were taken and the mean value was determined. To measure the density and fiber diameter distributions, images were captured with a 100× phase contrast objective from 10 different areas of each nerve. These were edited to eliminate non-neural objects and the size of each axon internal to the myelin sheath (its minimum diameter) and the density of axons/square mm were calculated for each image and nerve. The mean density was multiplied by total nerve area to yield fiber number for each nerve. The total fiber number in glaucoma or transection nerves was compared to the normal, fellow eye of each rat to yield a percent loss value. The number of axons counted among the 10 images was an approximately 20% sample of the 80–90,000 axons in normal rat nerves. The person measuring axon number was masked to the protocol conducted on the nerves.

O=C(O)CCC(CP(=O)(O)Cc1c(F)c(F)c(F)c(F)c1F)C(=O)O (centres unmarked) [Compound A]
hyperalgesic response (withdrawal latency difference score) [1]: completely reversed
withdrawal latency [2]: longer withdrawal latencies
nerve conduction velocity [3]: significantly less severe nerve conduction deficits
motor and sensory nerve conduction velocities ([4]; 10 mg/kg daily for 4, 8 and 12 weeks, FIGS. 9A and 9B): tended to improve (increase) both motor and sensory nerve conduction velocities
treatment time at which significant improvement of motor nerve conduction velocity was observed ([4]; 10 mg/kg daily, FIG. 9A): 12 weeks
treatment time at which significant improvement of sensory nerve conduction velocity was observed ([4]; 10 mg/kg daily, FIG. 9B): 8 weeks
FIBER NUMBER ([5]; 10 mg/kg daily intraperitoneal): 79156 ± 2436
PERCENT DIFFERENCE in fiber number between glaucoma and normal eye ([5]; positive value indicates fewer fibers in the glaucoma eye): −1.82 ± 2.92%
